Consider 27 molecules from US9034921B2, “Diphenylmethane derivatives as SGLT2 inhibitors” (GREEN CROSS CORPORATION, priority 2011, dated 2015).

The experiment deals with human SGLT2 (Homo sapiens (Human), UniProt P31639). The experiment is described as follows: Inhibitory effects on human SGLT2 activities (14C-AMG uptake, sodium-dependent glucose transport assay). The class given is cell-based. To be noted: CHO cells stably expressing hSGLT2, 37° C., 2 h, single determinations. Summed up: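 CHO cells stably expressing hSGLT2 were preincubated 10 min at 37 °C in choline (Na+-free) buffer, then exposed 2 h at 37 °C to compound in Na+ uptake buffer with 8 μM 14C-AMG and 1 mM unlabeled AMG. Radioactivity was scintillation counted; IC50 came from nonlinear regression.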
Chain of human SGLT2 (P31639 whole entry): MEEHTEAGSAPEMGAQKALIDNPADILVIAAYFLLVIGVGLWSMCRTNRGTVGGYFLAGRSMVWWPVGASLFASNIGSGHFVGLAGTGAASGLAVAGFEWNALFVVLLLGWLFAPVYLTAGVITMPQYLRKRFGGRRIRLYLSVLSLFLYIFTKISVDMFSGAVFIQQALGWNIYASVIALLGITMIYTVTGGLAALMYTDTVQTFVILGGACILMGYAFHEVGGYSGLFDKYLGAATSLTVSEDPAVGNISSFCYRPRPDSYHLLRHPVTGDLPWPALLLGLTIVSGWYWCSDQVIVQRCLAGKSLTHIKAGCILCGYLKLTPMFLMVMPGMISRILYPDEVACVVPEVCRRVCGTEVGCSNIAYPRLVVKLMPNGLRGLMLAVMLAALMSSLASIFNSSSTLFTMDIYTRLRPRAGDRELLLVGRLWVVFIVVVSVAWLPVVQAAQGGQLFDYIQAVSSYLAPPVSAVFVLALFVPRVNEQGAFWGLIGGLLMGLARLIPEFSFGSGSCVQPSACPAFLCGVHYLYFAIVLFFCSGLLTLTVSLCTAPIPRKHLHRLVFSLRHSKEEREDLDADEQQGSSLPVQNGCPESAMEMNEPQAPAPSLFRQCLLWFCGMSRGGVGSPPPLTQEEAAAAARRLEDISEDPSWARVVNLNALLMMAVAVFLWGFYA
The molecule `OC[C@H]1O[C@@H](c2cc(Cc3ccc(OC(F)(F)F)cc3)c(Cl)c3c2CCO3)[C@H](O)[C@@H](O)[C@@H]1O` [Example E200, (2S,3R,4R,5S,6R)-2-(7-Chloro-6-(4-(trifluoromethoxy)benzyl)-2,3-dihydrobenzofuran-4-yl)-6-(hydroxymethyl)tetrahydro-2H-pyran-3,4,5-triol] had an IC50 of 1.08 nM.
For the molecule `COc1ccc(Cc2cc([C@@H]3O[C@H](CO)[C@@H](O)[C@H](O)[C@H]3O)c3oc(C)c(OC)c3c2Cl)cc1` [Example E201, (2S,3R,4R,5S,6R)-2-(4-Chloro-3-methoxy-5-(4-methoxybenzyl)-2-methylbenzofuran-7-yl)-6-(hydroxymethyl)tetrahydro-2H-pyran-3,4,5-triol], the half-inhibitory concentration (IC50) amounted to 49.4 nM.
For `COc1ccc(Cc2cc([C@@H]3O[C@H](CO)[C@@H](O)[C@H](O)[C@H]3O)c3occ(OC)c3c2Cl)cc1` [Example E202, (2S,3R,4R,5S,6R)-2-(4-Chloro-3-methoxy-5-(4-methoxybenzyl)benzofuran-7-yl)-6-(hydroxymethyl)tetrahydro-2H-pyran-3,4,5-triol], 42.3 nM corresponded to half-maximal inhibition (IC50).
The figure for `N#CCc1ccc(Cc2cc([C@@H]3O[C@H](CO)[C@@H](O)[C@H](O)[C@H]3O)c3c(c2Cl)OCC3)cc1` [Example E203, 2-(4-((7-Chloro-4-((2S,3R,4R,5S,6R)-3,4,5-trihydroxy-6-(hydroxymethyl)tetrahydro-2H-pyran-2-yl)-2,3-dihydrobenzofuran-6-yl)methyl)phenyl)acetonitrile] is 1.81 nM.
Molecule `OC[C@H]1O[C@@H](c2cc(Cc3ccc(OC4COC4)cc3)c(Cl)c3c2CCO3)[C@H](O)[C@@H](O)[C@@H]1O` [Example E204, (2S,3R,4R,5S,6R)-2-(7-Chloro-6-(4-(oxetan-3-yloxy)benzyl)-2,3-dihydrobenzofuran-4-yl)-6-(hydroxymethyl)tetrahydro-2H-pyran-3,4,5-triol] displayed a concentration for half-maximal inhibition (IC50) of 5.05 nM.
With `CC(C)Oc1ccc(Cc2cc([C@@H]3O[C@H](CO)[C@@H](O)[C@H](O)[C@H]3O)c3c(c2Cl)OCC3)cc1` [Example E205, (2S,3R,4R,5S,6R)-2-(7-Chloro-6-(4-isopropoxybenzyl)-2,3-dihydrobenzofuran-4-yl)-6-(hydroxymethyl)tetrahydro-2H-pyran-3,4,5-triol] the figure was 1.96 nM.
Turning to `OC[C@H]1O[C@@H](c2cc(Cc3ccc(SC4CC4)cc3)c(Cl)c3c2CCO3)[C@H](O)[C@@H](O)[C@@H]1O` [Example E206, (2S,3R,4R,5S,6R)-2-(7-Chloro-6-(4-(cyclopropylthio)benzyl)-2,3-dihydrobenzofuran-4-yl)-6-(hydroxymethyl)tetrahydro-2H-pyran-3,4,5-triol], the half-inhibitory concentration (IC50) came out at 1.88 nM.
Consider `COc1ccc(Cc2cc([C@@H]3O[C@H](CO)[C@@H](O)[C@H](O)[C@H]3O)c3c(c2Cl)OCC3)s1` [Example E207, (2S,3R,4R,5S,6R)-2-(7-Chloro-6-((5-methoxythiophen-2-yl)methyl)-2,3-dihydrobenzofuran-4-yl)-6-(hydroxymethyl)tetrahydro-2H-pyran-3,4,5-triol], for which the midpoint of inhibition, the IC50, lay at 3.75 nM.
`CCN(CC)c1ccc(Cc2cc([C@@H]3O[C@H](CO)[C@@H](O)[C@H](O)[C@H]3O)ccc2Cl)cc1` [Example E210, (2S,3R,4R,5S,6R)-2-(4-Chloro-3-(4-(diethylamino)benzyl)phenyl)-6-(hydroxymethyl)tetrahydro-2H-pyran-3,4,5-triol] came in with a concentration for half-maximal inhibition (IC50) of 89.3 nM.
For the molecule `OC[C@H]1O[C@@H](c2ccc(Cl)c(Cc3ccc(N4CCOCC4)cc3)c2)[C@H](O)[C@@H](O)[C@@H]1O` [Example E211, (2S,3R,4R,5S,6R)-2-(4-Chloro-3-(4-morpholinobenzyl)phenyl)-6-(hydroxymethyl)tetrahydro-2H-pyran-3,4,5-triol], the concentration for half-maximal inhibition (IC50) came out at 9.08 nM.
`CCOc1ccc(Cc2cc([C@@H]3O[C@H](CO)[C@@H](O)[C@H](O)[C@H]3O)c3c(c2Cl)N(C)CCO3)cc1` [Example E213, (2S,3R,4R,5S,6R)-2-(5-Chloro-6-(4-ethoxybenzyl)-4-methyl-3,4-dihydro-2H-benzo[b][1,4]oxazin-8-yl)-6-(hydroxymethyl)tetrahydro-2H-pyran-3,4,5-triol] yielded an IC50 of 6.12 nM.
`CCc1ccc(Cc2cc([C@@H]3O[C@H](CO)[C@@H](O)[C@H](O)[C@H]3O)c3c(c2Cl)NCCO3)cc1` [Example E214, (2S,3R,4R,5S,6R)-2-(5-Chloro-6-(4-ethylbenzyl)-3,4-dihydro-2H-benzo[b][1,4]oxazin-8-yl)-6-(hydroxymethyl)tetrahydro-2H-pyran-3,4,5-triol] had a concentration for half-maximal inhibition (IC50) of 3.17 nM.
In turn, `CCc1ccc(Cc2cc([C@@H]3O[C@H](CO)[C@@H](O)[C@H](O)[C@H]3O)c3c(c2Cl)C(C)CO3)cc1` (stereo partly drawn) [Example E215, (2S,3R,4R,5S,6R)-2-(4-Chloro-5-(4-ethylbenzyl)-3-methyl-2,3-dihydrobenzofuran-7-yl)-6-(hydroxymethyl)tetrahydro-2H-pyran-3,4,5-triol] came in with an IC50 of 0.891 nM.
`COc1ccc(Cc2cc([C@@H]3O[C@H](CO)[C@@H](O)[C@H](O)[C@H]3O)c3c(c2Cl)C(C)CO3)cc1` (stereo partly drawn) [Example E216, (2S,3R,4R,5S,6R)-2-(4-Chloro-5-(4-methoxybenzyl)-3-methyl-2,3-dihydrobenzofuran-7-yl)-6-(hydroxymethyl)tetrahydro-2H-pyran-3,4,5-triol] gave a half-maximal inhibitory concentration (IC50) of 1.22 nM.
Turning to `CCc1ccc(Cc2cc([C@@H]3O[C@H](CO)[C@@H](O)[C@H](O)[C@H]3O)c3c(c2Cl)C(C)(C)CO3)cc1` [Example E217, (2S,3R,4R,5S,6R)-2-(4-Chloro-5-(4-ethylbenzyl)-3,3-dimethyl-2,3-dihydrobenzofuran-7-yl)-6-(hydroxymethyl)tetrahydro-2H-pyran-3,4,5-triol], half-maximal inhibition (IC50) required 1.76 nM.
As for `COc1ccc(Cc2cc([C@@H]3O[C@H](CO)[C@@H](O)[C@H](O)[C@H]3O)c3c(c2Cl)C(C)(C)CO3)cc1` [Example E218, (2S,3R,4R,5S,6R)-2-(4-Chloro-5-(4-methoxybenzyl)-3,3-dimethyl-2,3-dihydrobenzofuran-7-yl)-6-(hydroxymethyl)tetrahydro-2H-pyran-3,4,5-triol], the IC50 is 4.66 nM.
With `COc1ccc(Cc2cc([C@@H]3O[C@H](CO)[C@@H](O)[C@H](O)[C@H]3O)c3c(c2Cl)CC(C)(C)O3)cc1` [Example E219, (2S,3R,4R,5S,6R)-2-(4-Chloro-5-(4-methoxybenzyl)-2,2-dimethyl-2,3-dihydrobenzofuran-7-yl)-6-(hydroxymethyl)tetrahydro-2H-pyran-3,4,5-triol] the figure was 1.61 nM.
`CCOc1ccc(Cc2cc([C@@H]3O[C@H](CO)[C@@H](O)[C@H](O)[C@H]3O)c3c(c2Cl)CC(C)(C)O3)cc1` [Example E220, (2S,3R,4R,5S,6R)-2-(4-Chloro-5-(4-ethoxybenzyl)-2,2-dimethyl-2,3-dihydrobenzofuran-7-yl)-6-(hydroxymethyl)tetrahydro-2H-pyran-3,4,5-triol]: the IC50 amounted to 1.27 nM.
`OC[C@H]1O[C@@H](c2ccc(Cl)c(Cc3ccc(N4CCCC4)cc3)c2)[C@H](O)[C@@H](O)[C@@H]1O` [Example E221]: the IC50 is 2.17 nM.
Regarding `CCOc1ccc(Cc2cc([C@@H]3O[C@H](CO)[C@@H](O)[C@H](O)[C@H]3O)c3c(c2Cl)C(C)CO3)cc1` (stereo partly drawn) [Example E222, (2S,3R,4R,5S,6R)-2-(4-Chloro-5-(4-ethoxybenzyl)-3-methyl-2,3-dihydrobenzofuran-7-yl)-6-(hydroxymethyl)-tetrahydro-2H-pyran-3,4,5-triol], it took 1.99 nM to reach half-maximal inhibition (IC50).
The figure for `CCOc1ccc(Cc2cc([C@@H]3O[C@H](CO)[C@@H](O)[C@H](O)[C@H]3O)c3c(c2Cl)C(C)(C)CO3)cc1` [Example E223, (2S,3R,4R,5S,6R)-2-(4-Chloro-5-(4-ethoxybenzyl)-3,3-dimethyl-2,3-dihydrobenzofuran-7-yl)-6-(hydroxymethyl)-tetrahydro-2H-pyran-3,4,5-triol] is 4.16 nM; for `CCOc1ccc(Cc2cc([C@@H]3O[C@H](CO)[C@@H](O)[C@H](O)[C@H]3O)c3c(c2Cl)OCC3C)cc1` (stereo partly drawn) [Example E224, (2S,3R,4R,5S,6R)-2-(7-Chloro-6-(4-ethoxybenzyl)-3-methyl-2,3-dihydrobenzofuran-4-yl)-6-(hydroxymethyl)-tetrahydro-2H-pyran-3,4,5-triol] it is 0.867 nM; for `CCOc1ccc(Cc2cc([C@@H]3O[C@H](CO)[C@@H](O)[C@H](O)[C@H]3O)c3c(c2Cl)OCC3(C)C)cc1` [Example E225, (2S,3R,4R,5S,6R)-2-(7-Chloro-6-(4-ethoxybenzyl)-3,3-dimethyl-2,3-dihydrobenzofuran-4-yl)-6-(hydroxymethyl)-tetrahydro-2H-pyran-3,4,5-triol] it is 1.82 nM.
The figure for `CCOc1ccc(Cc2cc([C@@H]3O[C@H](CO)[C@@H](O)[C@H](O)[C@H]3O)c3c(c2Cl)OCC3=O)cc1` [Example E226] is 10.5 nM.
Molecule `CCOc1ccc(Cc2cc([C@@H]3O[C@H](CO)[C@@H](O)[C@H](O)[C@H]3O)c3c(c2Cl)OCC3OC)cc1` (stereo partly drawn) [Example E227, (2S,3R,4R,5S,6R)-2-(7-Chloro-6-(4-ethoxybenzyl)-3-methoxy-2,3-dihydrobenzofuran-4-yl)-6-(hydroxymethyl)-tetrahydro-2H-pyran-3,4,5-triol] showed a 50% inhibitory concentration (IC50) of 8.99 nM.
As to `CCCc1c(Cc2ccc(OCC)cc2)cc([C@@H]2O[C@H](CO)[C@@H](O)[C@H](O)[C@H]2O)c2c1OCC2` [Example E229, (2S,3R,4R,5S,6R)-2-(6-(4-Ethoxybenzyl)-7-propyl-2,3-dihydrobenzofuran-4-yl)-6-(hydroxymethyl)-tetrahydro-2H-pyran-3,4,5-triol], half-maximal inhibition (IC50) required 5.6 nM.
As for `OC[C@H]1O[C@@H](c2cc(Cc3ccc4c(c3)NCCC4)c(Cl)c3c2CCO3)[C@H](O)[C@@H](O)[C@@H]1O` [Example E230, (2S,3R,4R,5S,6R)-2-(7-Chloro-6-((1,2,3,4-tetrahydroquinolin-7-yl)methyl)-2,3-dihydrobenzofuran-4-yl)-6-(hydroxymethyl)-tetrahydro-2H-pyran-3,4,5-triol], half-maximal inhibition (IC50) required 2.49 nM.

A word on the IC50: it is the midpoint of a concentration-inhibition curve. The low end stands for greater potency in that assay, the high end for weaker potency in that assay.
